This is an account of results in ChEMBL document CHEMBL3259560, “Synthesis of xanthone derivatives based on α-mangostin and their biological evaluation for anti-cancer agents” (Bioorg Med Chem Lett, 2014).

Molecules are shown by their SMILES. ≈ marks a conversion by molar mass, not a printed value.

By IC50 is commonly meant the concentration that gives 50% inhibition.

The test system of one series is ASPC1. In words: Cytotoxicity against human AsPC1 cells assessed as inhibition of cell proliferation after 48 hrs by XTT assay. It is filed as functional, cell-based. Conditions: ASPC1, 48 h.
The next series has as its system SW-620. Briefly: Cytotoxicity against human SW620 cells assessed as inhibition of cell proliferation after 48 hrs by XTT assay. It is filed as functional, cell-based. Conditions: SW-620, 48 h. For orientation: Tetrazolium assays rely on reduction of a dye to a coloured formazan, in cell work by metabolically active cells.
The subject of the next series is MDA-MB-231. Briefly: Cytotoxicity against human MDA-MB-231 cells assessed as inhibition of cell proliferation after 48 hrs by XTT assay. The format is functional, cell-based. Particulars: MDA-MB-231, 48 h.
A short description of series [1]: Kinetic solubility of the compound in water containing 5% DMSO at pH 6.8. It is filed as physicochemical. Particulars: read-out: Kinetic_solubility.
For the next series, the system named is NCI-H460. Briefly: Cytotoxicity against human NCI-H460 cells assessed as inhibition of cell proliferation after 48 hrs by XTT assay. It is filed as functional, cell-based. Particulars: NCI-H460, 48 h.
The nature of series [2]: Cytotoxicity against mouse B16F10 cells assessed as inhibition of cell proliferation after 48 hrs by XTT assay. It is filed as functional, cell-based. Conditions: B16-F10, 48 h.

In the case of `CC(C)=CCc1c(O)cc2oc3cc(O)c(O)c(CC=C(C)C)c3c(=O)c2c1O`, the 50% inhibitory concentration (IC50) was 5.92 µM with ASPC1 (read-out: IC50), 5.69 µM in the series on SW-620, 5.87 µM with MDA-MB-231 and 4.48 µM in the series with NCI-H460. The solubility kinetic in series [1] worked out at 94 µM (≈ 37.3 µg/mL).
On to `COc1c(OC(C)=O)cc2oc3cc(O)c(CC=C(C)C)c(O)c3c(=O)c2c1CC=C(C)C`, for which the IC50 was found to be 13.9 µM in the series on ASPC1 (read-out: IC50); 13.1 µM in series [2]; 10.9 µM in the series on SW-620; 12.9 µM in the series with MDA-MB-231; 12.6 µM in the series on NCI-H460. In series [1], the solubility kinetic worked out at 148 µM (≈ 67 µg/mL).
In the case of `COc1c(OCC(=O)O)cc2oc3cc(O)c(CC=C(C)C)c(O)c3c(=O)c2c1CC=C(C)C`, the IC50 in the series with ASPC1 (read-out: IC50) is 52.8 µM; in series [2], 28.6 µM; in the series on SW-620, 46.6 µM; in the series on MDA-MB-231, greater than 100 µM; in the series on NCI-H460 it was 54.6 µM.
Consider `COc1c(OCC(=O)O)cc2oc3cc(OCC(=O)O)c(CC=C(C)C)c(O)c3c(=O)c2c1CC=C(C)C`, for which the IC50 in the series on ASPC1 (read-out: IC50) was greater than 100 µM; in series [2], 95.8 µM; in the series with SW-620, greater than 100 µM; with MDA-MB-231, greater than 100 µM; in the series on NCI-H460, greater than 100 µM.
Turning to `C=CCOc1cc2oc3cc(O)c(CC=C(C)C)c(O)c3c(=O)c2c(CC=C(C)C)c1OC`, the 50% inhibitory concentration (IC50) with ASPC1 (read-out: IC50) worked out at 21.3 µM; in series [2], 16.5 µM; with SW-620 it was 12.1 µM; in the series on MDA-MB-231, 17.9 µM; in the series on NCI-H460 it was 12.2 µM. In series [1], the solubility kinetic stood at 149 µM (≈ 67.1 µg/mL).
`COc1c(OS(=O)(=O)C(F)(F)F)cc2oc3cc(OS(=O)(=O)C(F)(F)F)c(CC=C(C)C)c(O)c3c(=O)c2c1CC=C(C)C`: the IC50 in the series with ASPC1 (read-out: IC50) turned out to be 13.8 µM; in series [2] it was 15.3 µM; with SW-620, 9.01 µM; with MDA-MB-231, 16.9 µM; in the series with NCI-H460, 22.4 µM.
The corresponding values for `C=CCOc1cc2oc3cc(OC)c(CC=C(C)C)c(O)c3c(=O)c2c(CC=C(C)C)c1OC` are greater than 100 µM, greater than 100 µM, greater than 100 µM, greater than 100 µM and greater than 100 µM.
As to `C=CCOc1cc2oc3cc(OCC=C)c(OC)c(CC=C(C)C)c3c(=O)c2c(OC)c1CC=C(C)C`, the IC50 in the series on ASPC1 (read-out: IC50) turned out to be 25.8 µM; in series [2] it was 41 µM; in the series on SW-620, 44.6 µM; in the series with MDA-MB-231, 28 µM; with NCI-H460 it was 14.6 µM.
With `COc1c(O)cc2oc3cc(O)c(CC=C(C)C)c(OC)c3c(=O)c2c1CC=C(C)C`, the IC50 with ASPC1 (read-out: IC50) was found to be 13.9 µM; in series [2], 16.6 µM; with SW-620, 18.2 µM; in the series on MDA-MB-231 it was 20.8 µM; in the series on NCI-H460, 10.8 µM. Further, the solubility kinetic in series [1] is 104 µM (≈ 44.1 µg/mL).
Regarding `COc1ccc2oc3cc(O)c(CCC(C)C)c(O)c3c(=O)c2c1CCC(C)C`, the IC50 (in the series on ASPC1 (read-out: IC50); in series [2]; in the series with SW-620; in the series on MDA-MB-231; in the series with NCI-H460) was greater than 100 µM each time.
Take `COc1ccc2oc3ccc(CCC(C)C)c(O)c3c(=O)c2c1CCC(C)C`: the IC50 (in the series on ASPC1 (read-out: IC50); in series [2]; with SW-620; in the series on MDA-MB-231; in the series on NCI-H460) was greater than 100 µM in each case.
For `COc1c(N)cc2oc3ccc(CCC(C)C)c(O)c3c(=O)c2c1CCC(C)C`, the IC50 in the series on ASPC1 (read-out: IC50) is 31.3 µM; in series [2], 14.4 µM; in the series with SW-620 it was 15.9 µM; in the series on MDA-MB-231, 30.9 µM; in the series with NCI-H460 it was 17.6 µM. Moreover, the solubility kinetic in series [1] was 138 µM (≈ 54.9 µg/mL).
As to `COc1c(O)cc2oc3cc(O)c(CCC(C)C)c(O)c3c(=O)c2c1CCC(C)C`, the IC50 with ASPC1 (read-out: IC50) was 4.64 µM; in series [2], 6.54 µM; in the series on SW-620, 6.42 µM; in the series on MDA-MB-231, 4.91 µM; with NCI-H460, 4.17 µM. Also, in series [1], the solubility kinetic worked out at 78 µM (≈ 32.3 µg/mL).
On to `COc1c(O)cc2oc3c([N+](=O)[O-])c(O)c(CCC(C)C)c(O)c3c(=O)c2c1CCC(C)C`, for which the IC50 was found to be 31.8 µM with ASPC1 (read-out: IC50), 22.6 µM with SW-620, 29 µM in the series with MDA-MB-231 and 16.8 µM in the series on NCI-H460. Further, in series [1], the solubility kinetic is 339 µM (≈ 156 µg/mL).
As for `COc1c(O)cc2oc3c(N)c(O)c(CCC(C)C)c(O)c3c(=O)c2c1CCC(C)C`, the IC50 with ASPC1 (read-out: IC50) was found to be 13 µM; in series [2], 12.3 µM; with SW-620, 6.24 µM; in the series with MDA-MB-231, 17.6 µM; in the series on NCI-H460, 15.1 µM.
Regarding `COc1c(O)cc2oc3c(Cl)c(O)c(CCC(C)C)c(O)c3c(=O)c2c1CCC(C)C`, the IC50 amounted to 19.3 µM with ASPC1 (read-out: IC50); 12.4 µM in series [2]; 9.59 µM with SW-620; 10.1 µM with MDA-MB-231; 9.96 µM in the series on NCI-H460. Besides, the solubility kinetic in series [1] worked out at 381 µM (≈ 171 µg/mL).
Turning to `C#CCOc1c(O)cc2oc3cc(O)c(CC=C(C)C)c(O)c3c(=O)c2c1CC=C(C)C`, the IC50 in the series on ASPC1 (read-out: IC50), in the series on SW-620, in the series on MDA-MB-231 and in the series with NCI-H460 was greater than 100 µM in each case.
For the compound `CC(C)=CCc1c(O)cc2oc3cc(O)c(OCc4cn(CC(=O)OC(C)(C)C)nn4)c(CC=C(C)C)c3c(=O)c2c1O`, the IC50 with ASPC1 (read-out: IC50), in the series with SW-620, with MDA-MB-231 and in the series with NCI-H460 was greater than 100 µM each time.
For `C=CCOc1cc2oc3cc(OCC=C)c(OC)c(CC=C(C)C)c3c(=O)c2c(O)c1CC=C(C)C`, the IC50 (in the series with ASPC1 (read-out: IC50); in series [2]; in the series with SW-620; with MDA-MB-231; with NCI-H460) was greater than 100 µM throughout.
On to `COc1c(O)cc2oc3cc4c(c(O)c3c(=O)c2c1CC=C(C)C)CCC(C)(C)O4`, for which the IC50 (with ASPC1 (read-out: IC50); in series [2]; in the series on SW-620; with MDA-MB-231; in the series on NCI-H460) was greater than 100 µM in each case.
As to `COc1c(OC(C)=O)cc2oc3cc(OC(C)=O)c(CC=C(C)C)c(O)c3c(=O)c2c1CC=C(C)C`, the half-inhibitory concentration (IC50) with ASPC1 (read-out: IC50) was 14.2 µM; in series [2] it was 15.1 µM; in the series on SW-620, 22.7 µM; with MDA-MB-231 it was 17.4 µM; with NCI-H460, 12.5 µM. In series [1], the solubility kinetic was 122 µM (≈ 60.3 µg/mL).
On to `COc1cccc2c1C(=O)c1c(O)c3c(c(O)c1C2=O)C[C@@](O)(C(=O)CO)C[C@@H]3O[C@H]1C[C@H](N)[C@H](O)[C@H](C)O1` [DOXORUBICIN], for which the IC50 worked out at 1.87 µM in the series on ASPC1; 0.12 µM in series [2]; 0.12 µM in the series on SW-620; 0.98 µM with MDA-MB-231; 0.08 µM with NCI-H460.
On to `COc1c(O)cc2oc3cc4c(c(O)c3c(=O)c2c1CC=C(C)C)C=CC(C)(C)O4` [MANGOSTANIN], for which the 50% inhibitory concentration (IC50) was 25.5 µM with ASPC1 (read-out: IC50); 26.2 µM in series [2]; 26.1 µM with SW-620; 21.1 µM with MDA-MB-231; 19.7 µM in the series with NCI-H460.
For the compound `COc1c(O)cc2oc3cc(O)c(CC=C(C)C)c(O)c3c(=O)c2c1CC=C(C)C` [MANGOSTIN], the IC50 was 4.02 µM with ASPC1 (read-out: IC50); 3.23 µM in series [2]; 2.97 µM in the series on SW-620; 3.04 µM with MDA-MB-231; 3.23 µM with NCI-H460. For the same compound, the solubility kinetic in series [1] came out at 20 µM (≈ 8.21 µg/mL).
